Results as given in US10104891B2 (priority 2014, dated 2018).

Assays:
Assay type in all cases: in vivo
[1] = tested on: Pseudoperonospora cubensis; experiment: Test 2: control effect against cucumber downy mildew; settings: Pseudoperonospora cubensis, 120 h, control value vs untreated section
Summary of the method: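 Protective test: zoospores (1.0×10^4 units/ml) misted one day after applying a 4 ppm suspension (wettable powder diluted in 1/5000 Tween20) to 2-leaf cucumber, Sagami hanjiro. After 16 hr at 22° C humid incubation, leaf lesion area read at day 5, expressed as control value versus untreated leaves.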

Phytophthora infestans = experiment: whole plant or invertebrate; settings: Phytophthora infestans, in Solanum lycopersicum, 96 h, read-out: control value (Test 1)
Plasmopara viticola = experiment: Test 3: control effect against grape downy mildew; settings: Plasmopara viticola, 120 h, control value vs untreated section
Summary of the method: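 Leaf lesion area, scored 5 days after inoculation and compared with untreated plants, gives the control value. Inoculation used P. viticola zoospores (1.0×10^4 units/ml) with a 16 hr moist incubation at 22° C. It followed by one day a spray of 4 ppm compound (wettable powder in Tween20) onto Neomuscat seedlings.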

Pythium graminicola = experiment: Test 4: control effect against rice damping-off by the Pythium fungus (soil lavage); settings: 1,000 ppm, 2.5 ml test suspension drenched on contaminated soil, rice (koshihikari)
Description: A 10% wettable powder created according to the Pharmaceutical Formulation Example 1 was diluted with a Tween20 solution prepared to a concentration of 1/5000, then the compound of formula [1] was prepared to a concentration of 4 ppm. Further, the compound of formula [1] in Test 4 was adjusted to a concentration of 1,000 ppm.
<Test 4 Test of Control Effect Against Rice Damping-Off by the Pythium Fungus (Soil Lavage)>
Distilled water was added to the flora of Pythium graminicola cultured in bentoglass seed culture and stirred with a mixer, and adjusted the contaminated soil to 5 g of bacteria against 1 kg of soil.
In a cell tray having 31×31 mm^2 per cell, 20 ml of the contaminated soil was filled in each cell, and 3 seeds of rice chaff that has been forced to sprout (Species: koshihikari) were seeded, and 5 ml of soil was added for covering, then 2.5 ml of test suspension was drenched, and the seeds were incubated in a moist chamber adjusted to 28° C. for 72 hr to induce sprouting. Then, in a low temperature room of 5° C., the onset of disease was induced for 2 days, then the disease was nurtured for 14 days in a room of 25° C.
The soil was washed, and the apoptosis strain, growth restrained strain, and a healthy strain were measured and the onset rate was calculated by the following formula. Onset rate=[Σ(onset strain number by level×onset index)/(investigated strain×3)]×100 [Onset Index]
1: Growth restrained strain
Also, the following formula was used to compute the control value from the obtained onset index. control value={1−onset area rate at the section applied the test agent/onset area rate of untreated section}×100 Computational formula of the control value: […]

| Structure (SMILES) | pest or weed control at 4 µg/mL [1] [%] | pest or weed control at 4 µg/mL (Phytophthora infestans) [%] | pest or weed control at 4 µg/mL (Plasmopara viticola) [%] | pest or weed control at 1000 ppm (Pythium graminicola) [%] |
| --- | --- | --- | --- | --- |
| O=C(Cn1nc(C(F)F)cc1C(F)F)N1CCC(c2nc(C3OCc4c(F)ccc(F)c4CO3)cs2)CC1 [Compound 1-51, 4-[4-(6,9-difluoro-1,5-dihydro-3H-2,4-benzodioxepin-3-yl)-2-thiazolyl]-1-[2-[3,5-bis(difluoromethyl)-1H-pyrazole-1-yl]acetyl]piperidine] | 100 | 100 | 100 | ≥ 90 |
| CCCS(=O)(=O)Oc1cccc2c1COC(c1csc(C3CCN(C(=O)Cn4nc(C(F)(F)F)cc4C)CC3)n1)OC2 (stereo not drawn) [Compound 1-22, 4-[4-(6-propylsulfonyloxy-1,5-dihydro-3H-2,4-benzodioxepin-3-yl)-2-thiazolyl]-1-[2-[5-methyl-3-(trifluoromethyl)-1H-pyrazole-1-yl]acetyl]piperidine] | 100 | 100 | 100 | ≥ 90 |
| Cc1cc(C(F)(F)F)nn1CC(=O)N1CCC(c2nc(C3OCc4ccc(Cl)cc4CO3)cs2)CC1 (stereo not drawn) [Compound 1-40, 4-[4-(7-chloro-1,5-dihydro-3H-2,4-benzodioxepin-3-yl)-2-thiazolyl]-1-[2-[5-methyl-3-(trifluoromethyl)-1H-pyrazole-1-yl]acetyl]piperidine] | 100 | 100 | 100 | ≥ 90 |
| Cc1cc(C(F)(F)F)nn1CC(=O)N1CCC(c2nc(C3OCc4ccc(F)c(OS(C)(=O)=O)c4CO3)cs2)CC1 (stereo not drawn) [Compound 1-45, 4-[4-(7-fluoro-6-methylsulfonyloxy-1,5-dihydro-3H-2,4-benzodioxepin-3-yl)-2-thiazolyl]-1-[2-[5-methyl-3-(trifluoromethyl)-1H-pyrazole-1-yl]acetyl]piperidine] | 100 | 100 | 100 | ≥ 90 |
| COc1ccc(Cl)c2c1COC(c1csc(C3CCN(C(=O)Cc4cc(C)ccc4C)CC3)n1)OC2 (stereo not drawn) [Compound 2-20, 4-[4-(6-chloro-9-methoxy-1,5-dihydro-3H-2,4-benzodioxepin-3-yl)-2-thiazolyl]-1-[2-(2,5-dimethylphenyl)acetyl]piperidine] | 100 | 100 | 100 | ≥ 90 |
| Cc1ccc(C)c(CC(=O)N2CCC(c3nc(C4OCc5ccc(F)cc5CO4)cs3)CC2)c1 (stereo not drawn) [Compound 2-10, 4-[4-(7-fluoro-1,5-dihydro-3H-2,4-benzodioxepin-3-yl)-2-thiazolyl]-1-[2-(2,5-dimethylphenyl)acetyl]piperidine] | 100 | 80 | 100 | ≥ 90 |
| COc1ccc(C)c2c1COC(c1csc(C3CCN(C(=O)Cc4cc(C)ccc4C)CC3)n1)OC2 (stereo not drawn) [Compound 2-45, 4-[4-(6-methoxy-9-methyl-1,5-dihydro-3H-2,4-benzodioxepin-3-yl)-2-thiazolyl]-1-[2-(2,5-dimethylphenyl)acetyl]piperidine] | 100 | 90 | 100 | ≥ 90 |
| O=C(Cc1cc(Cl)ccc1Cl)N1CCC(c2nc(C3OCc4cccc(OC(F)F)c4CO3)cs2)CC1 (stereo not drawn) [Compound 2-48, 4-[4-[6-(difluoromethoxy)-1,5-dihydro-3H-2,4-benzodioxepin-3-yl]-2-thiazolyl]-1-[2-(2,5-dichlorophenyl)acetyl]piperidine] | 100 | 100 | 100 | ≥ 90 |
| CC(C)(C)c1ccc2c(c1)COC(c1csc(C3CCN(C(=O)Cn4nc(C(F)F)cc4C(F)F)CC3)n1)OC2 (stereo not drawn) [Compound 1-78, 4-[4-(7-tert-butyl-1,5-dihydro-3H-2,4-benzodioxepin-3-yl)-2-thiazolyl]-1-[2-[3,5-bis(difluoromethyl)-1H-pyrazole-1-yl]acetyl]piperidine] | 100 | 100 | 100 | ≥ 90 |
